From PubChem BioAssay (NCI) come the findings set out here.

Among the test systems are 786-0 renal; LOX IMVI melanoma; UACC-62 melanoma; HL-60(TB) leukemia; SK-MEL-2 melanoma; HOP-62 NSCLC; M14 melanoma; T-47D breast; CAKI-1 renal; PC-3 prostate; NCI-H460 lung; RXF 393 renal; ACHN renal; UACC-257 melanoma; A498 renal; HOP-92 NSCLC.
What all share (assay): inhibition of tumour cell growth, NCI panel, 48 h

Molecules are shown by their SMILES.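 48-hour exposure; five concentrations; linearly interpolated endpoints. At the TGI there is no net growth.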

Turning to `C=C[C@@H]1C[C@]2(C(=O)OC)Cc3nc4ccccc4nc3CC(C(=O)OC)=C2O1`, the TGI in the experiment on 786-0 renal, in the experiment on LOX IMVI melanoma, with UACC-62 melanoma, in the experiment with HL-60(TB) leukemia, in the experiment on SK-MEL-2 melanoma and with HOP-62 NSCLC was greater than 100 µM each time. Also, the TGI in the experiment with M14 melanoma, with T-47D breast, in the experiment with CAKI-1 renal, in the experiment on PC-3 prostate, with NCI-H460 lung and in the experiment with RXF 393 renal was greater than 100 µM in each case. For the same compound, the TGI with ACHN renal, in the experiment with UACC-257 melanoma and in the experiment with A498 renal was greater than 100 µM each time.

Regarding `COc1cc2cccc(N)c2cc1OC`, the TGI in the experiment on 786-0 renal, with LOX IMVI melanoma, with UACC-62 melanoma, in the experiment with HL-60(TB) leukemia, in the experiment on SK-MEL-2 melanoma and with HOP-62 NSCLC was greater than 100 µM in each case. Besides, the TGI in the experiment with M14 melanoma, in the experiment with T-47D breast, with CAKI-1 renal, with PC-3 prostate, with NCI-H460 lung and in the experiment on RXF 393 renal was greater than 100 µM throughout. The TGI with ACHN renal, in the experiment with UACC-257 melanoma and with A498 renal was greater than 100 µM each time.

In the case of `c1ccc([P+](Cc2ccccc2C[P+](c2ccccc2)(c2ccccc2)c2ccccc2)(c2ccccc2)c2ccccc2)cc1`, the TGI with 786-0 renal, with LOX IMVI melanoma, in the experiment on UACC-62 melanoma, in the experiment on HL-60(TB) leukemia, with SK-MEL-2 melanoma and in the experiment with HOP-62 NSCLC was greater than 100 µM in each case. For the same compound, the TGI in the experiment on M14 melanoma, in the experiment with T-47D breast, in the experiment with CAKI-1 renal, in the experiment with PC-3 prostate, with NCI-H460 lung and in the experiment on RXF 393 renal was greater than 100 µM throughout. Besides, the TGI with ACHN renal, with UACC-257 melanoma and with A498 renal was greater than 100 µM in each case.

On to `Cc1nc(N/N=C/c2ccccc2Cl)[nH]c(=O)c1CCO`, for which the TGI in the experiment with 786-0 renal is greater than 100 µM; in the experiment with LOX IMVI melanoma, greater than 100 µM; in the experiment on HOP-92 NSCLC, 57.3 µM; in the experiment with UACC-62 melanoma it was greater than 100 µM; with HL-60(TB) leukemia, greater than 100 µM; in the experiment with HOP-62 NSCLC, 50.4 µM. Also, the TGI with M14 melanoma is greater than 100 µM; with T-47D breast, greater than 100 µM; with PC-3 prostate, greater than 100 µM; in the experiment on NCI-H460 lung, greater than 100 µM; with RXF 393 renal, 69.9 µM; with ACHN renal, greater than 100 µM. Besides, the TGI with UACC-257 melanoma is greater than 100 µM.

Consider `CCCCC(Sc1cc(Cl)c(C)cc1S(=O)(=O)Nc1n[nH]c(N)n1)C(=O)OC` (stereo not given), for which the TGI with 786-0 renal, with LOX IMVI melanoma, in the experiment on UACC-62 melanoma, with HL-60(TB) leukemia, in the experiment on SK-MEL-2 melanoma and in the experiment on HOP-62 NSCLC was greater than 10 µM throughout. Besides, the TGI with M14 melanoma, with T-47D breast, with CAKI-1 renal, with PC-3 prostate, with NCI-H460 lung and with RXF 393 renal was greater than 10 µM in each case. The TGI with ACHN renal, with UACC-257 melanoma and in the experiment on A498 renal was greater than 10 µM throughout.

As for `CCOC(=O)[C@@]12C3C=CC(CC3)[C@]1(C(=O)c1ccccc1)C(=O)C(=O)N2c1ccccc1` (stereo not given in full), the TGI in the experiment on 786-0 renal, in the experiment with HOP-92 NSCLC, with UACC-62 melanoma, in the experiment with SK-MEL-2 melanoma, with HOP-62 NSCLC and in the experiment with M14 melanoma was greater than 100 µM in each case. Moreover, the TGI with T-47D breast, in the experiment with CAKI-1 renal, in the experiment with PC-3 prostate, in the experiment with NCI-H460 lung, with RXF 393 renal and in the experiment with ACHN renal was greater than 100 µM each time. In addition, the TGI with A498 renal is greater than 100 µM.

For `CCN(CC)c1ccc2cc(C(=O)Nc3ccccc3)c(=N)oc2c1`, the TGI in the experiment with 786-0 renal, in the experiment with LOX IMVI melanoma, in the experiment with HOP-92 NSCLC, in the experiment with UACC-62 melanoma, in the experiment on HL-60(TB) leukemia and in the experiment on SK-MEL-2 melanoma was greater than 100 µM throughout. Moreover, the TGI in the experiment with HOP-62 NSCLC, in the experiment on M14 melanoma, with T-47D breast, in the experiment with CAKI-1 renal, in the experiment on PC-3 prostate and in the experiment on NCI-H460 lung was greater than 100 µM each time. Also, the TGI with RXF 393 renal, in the experiment on ACHN renal and in the experiment on UACC-257 melanoma was greater than 100 µM each time.

In the case of `O=S(=O)(O)c1ccc(N=Nc2c(O)ccc3cc(Br)ccc23)cc1`, the TGI in the experiment with 786-0 renal, with LOX IMVI melanoma, in the experiment on HOP-92 NSCLC, in the experiment on UACC-62 melanoma, in the experiment with SK-MEL-2 melanoma and in the experiment with HOP-62 NSCLC was greater than 100 µM throughout. Also, the TGI in the experiment with M14 melanoma, in the experiment with T-47D breast, in the experiment with CAKI-1 renal, with PC-3 prostate, in the experiment on RXF 393 renal and with ACHN renal was greater than 100 µM each time. Moreover, the TGI in the experiment with UACC-257 melanoma and in the experiment on A498 renal was greater than 100 µM throughout.

On to `CCN1C(=O)C(C)S/C1=N\NC(=O)CSc1nc2ccccc2c(=O)n1CC` (stereo not given), for which the TGI in the experiment on 786-0 renal, with LOX IMVI melanoma, with UACC-62 melanoma, with HL-60(TB) leukemia, in the experiment with SK-MEL-2 melanoma and in the experiment on HOP-62 NSCLC was greater than 100 µM in each case. Besides, the TGI in the experiment with M14 melanoma was greater than 100 µM; in the experiment with T-47D breast it was greater than 100 µM; with CAKI-1 renal, greater than 100 µM; with PC-3 prostate, greater than 100 µM; in the experiment with NCI-H460 lung it was 20.4 µM; in the experiment on RXF 393 renal it was greater than 100 µM. Moreover, the TGI in the experiment on ACHN renal, with UACC-257 melanoma and with A498 renal was greater than 100 µM throughout.
